{
  "source": "patent US7312248B2",
  "about": "“Control of parasites in animals by the use of novel trifluoromethanesulfonanilide oxime ether derivatives” (Schering-Plough Animal Health Corporation, priority 2004, dated 2007)",
  "test_system": "cat flea (Ctenocephalides felis)",
  "assay": "whole plant or invertebrate",
  "type": "in vivo",
  "conditions": "for mortality at 1.26 µg/cm2, 1.26 µg/cm2 / mortality at 1.26 µg/cm2: Ctenocephalides felis",
  "procedure": "b) Ctenocephalides felis Adulticide Assay: C. felis Single Dose Screen\nMortality of fleas was the primary endpoint in the assay. Fleas were considered dead if they didn't move or were on their sides and unable to walk or right themselves. […] The concentration chosen (1.26 μg/cm^2) was higher than that known to kill 90% of cat fleas (LC90) using the reference compound, permethrin.\nThe test species was the cat flea (Ctenocephalides felis). The strain used was obtained from external suppliers as pupae and held in the laboratory under testing conditions until the adults had emerged. Fifteen (15) fleas were used in a minimum of four replicates against a single concentration level (approximately 60 fleas). The insects were selected to be in the adult life stage, aged between 3 and 7 days post emergence.\nThe compounds to be tested were supplied as solids and were prepared in acetone as described below prior to testing. Samples were stored in a refrigerator (5±1° C.) unless otherwise specified.\nDuring the mortality testing, the temperature was maintained at 25±1° C. Humidity was maintained at 75±5%. The base (area=159 mm^2) of a 100 mL glass Erlenmeyer (conical) flask provided the treatment surface. Flasks were pretreated with Coatasil™ glass treatment to maximise bio-availability of test compounds by preventing them from binding to glass the surface. The base of the 100 mL Erlenmeyer flask was treated with 0.5 mL of test sample in acetone and gently swirled. This volume was sufficient to cover the base of the flask. Flasks were left to dry for 24 hours before flea exposure.\nAdult cat fleas were placed into a sorting chamber, which allowed fleas to jump into the Erlenmeyer flasks. Fifteen (15) adult cat fleas were collected in each flask. The top of the flasks were then covered in Parafilm™ and small holes were made to allow gas exchange. A 0.5 mL volume of acetone as a solvent control was applied to the base of an Erlenmeyer flask and the testing proceeded in the same manner described above. Cat fleas in the treatment containers were held under testing conditions for 8, 24 and/or 48 hours. Mortality was recorded at 8, 24, 8 and 24, or 24 and 48 hours. Pooled 8, 24, 8 and 24, and 24 and 48 hour mortality data were converted to percentages and are summarized by Tables 14, 14A and 14B, below.",
  "key": {"[1]": {"conditions": "24 h, read-out: C. felis Mortality (%) 24 h, 24 h, Laboratory 1 A data"}, "[2]": {"conditions": "8 h, read-out: Ctenocephalides felis Mortality (%) 8 h"}, "[3]": {"conditions": "24 h, read-out: Ctenocephalides felis Mortality (%) 24 h"}, "[4]": {"conditions": "24 h, read-out: C. felis Mortality (%) 24 h, 24 h, Laboratory 2 B data"}, "[5]": {"conditions": "48 h, read-out: C. felis Mortality (%) 48 h, 48 h, Laboratory 2 B data"}, "[6]": {"conditions": "48 h, read-out: Ctenocephalides felis Mortality (%) 48 h"}},
  "note": "Where two headings read alike, the source gives them in different places.",
  "data": [
    {"smiles": "CO/N=C(\\C)c1cc2c(cc1NS(=O)(=O)C(F)(F)F)OCO2", "note": "[Compound 32]", "values": [
      {"measurement": "mortality at 1.26 µg/cm2, 1.26 µg/cm2", "setting": "[1]", "value": 100, "unit": "%"}
    ]},
    {"smiles": "CC/C(=N\\OC(C)C)c1cc(Cl)ccc1NS(=O)(=O)C(F)(F)F", "note": "[Compound 154]", "values": [
      {"measurement": "mortality at 1.26 µg/cm2, 1.26 µg/cm2", "setting": "[1]", "value": 100, "unit": "%"}
    ]},
    {"smiles": "CCCC(=O)OCN(c1ccc(Cl)cc1/C(CC)=N/Oc1ccc(Cl)cc1)S(=O)(=O)C(F)(F)F", "note": "[Compound 309]", "values": [
      {"measurement": "mortality at 1.26 µg/cm2", "setting": "[2]", "value": 3, "unit": "%"},
      {"measurement": "mortality at 1.26 µg/cm2", "setting": "[3]", "value": 86, "unit": "%"}
    ]},
    {"smiles": "O=S(=O)(Nc1ccc(Cl)cc1/C(=N/OC1CCCCC1)c1ccccc1)C(F)(F)F", "note": "[Compound 179]", "values": [
      {"measurement": "mortality at 1.26 µg/cm2, 1.26 µg/cm2", "setting": "[1]", "value": 12, "unit": "%"}
    ]},
    {"smiles": "CO/N=C(\\C)c1cccc(OC)c1NS(=O)(=O)C(F)(F)F", "note": "[Compound 40]", "values": [
      {"measurement": "mortality at 1.26 µg/cm2, 1.26 µg/cm2", "setting": "[1]", "value": 45, "unit": "%"}
    ]},
    {"smiles": "CC(C)O/N=C(\\c1ccccc1)c1cc(Cl)ccc1NS(=O)(=O)C(F)(F)F", "note": "[Compound 176]", "values": [
      {"measurement": "mortality at 1.26 µg/cm2, 1.26 µg/cm2", "setting": "[1]", "value": 52, "unit": "%"}
    ]},
    {"smiles": "CCO/N=C(\\CC)c1cc(Cl)ccc1NS(=O)(=O)C(F)(F)F", "note": "[Compound 37]", "values": [
      {"measurement": "mortality at 1.26 µg/cm2, 1.26 µg/cm2", "setting": "[1]", "value": 29, "unit": "%"}
    ]},
    {"smiles": "CC/C(=N\\OCC=C(C)C)c1cc(Cl)ccc1NS(=O)(=O)C(F)(F)F", "note": "[Compound 250]", "values": [
      {"measurement": "mortality at 1.26 µg/cm2, 1.26 µg/cm2", "setting": "[4]", "value": 97, "unit": "%"},
      {"measurement": "mortality at 1.26 µg/cm2, 1.26 µg/cm2", "setting": "[5]", "value": 100, "unit": "%"}
    ]},
    {"smiles": "CCO/N=C(\\C)c1ccccc1NS(=O)(=O)C(F)(F)F", "note": "[Compound 29]", "values": [
      {"measurement": "mortality at 1.26 µg/cm2, 1.26 µg/cm2", "setting": "[1]", "value": 92, "unit": "%"}
    ]},
    {"smiles": "CCCc1conc1-c1cc(Cl)ccc1NS(=O)(=O)C(F)(F)F", "note": "[Compound 295]", "values": [
      {"measurement": "mortality at 1.26 µg/cm2", "setting": "[2]", "value": 0, "unit": "%"},
      {"measurement": "mortality at 1.26 µg/cm2", "setting": "[3]", "value": 44, "unit": "%"}
    ]},
    {"smiles": "C/C(=N\\Oc1ccc(C(F)(F)F)cc1)c1cc(Cl)ccc1NS(=O)(=O)C(F)(F)F", "note": "[Compound 143]", "values": [
      {"measurement": "mortality at 1.26 µg/cm2, 1.26 µg/cm2", "setting": "[1]", "value": 7, "unit": "%"}
    ]},
    {"smiles": "C/C(=N\\Oc1ccc(F)c(Cl)c1)c1cc(Cl)ccc1NS(=O)(=O)C(F)(F)F", "note": "[Compound 144]", "values": [
      {"measurement": "mortality at 1.26 µg/cm2, 1.26 µg/cm2", "setting": "[1]", "value": 15, "unit": "%"}
    ]},
    {"smiles": "O=S(=O)(Nc1ccc(Cl)cc1/C(=N/Oc1ccc(F)cc1)c1ccccc1)C(F)(F)F", "note": "[Compound 165, N-{4-chloro-2-[(4-fluorophenoxyimino)phenylmethyl]phenyl}trifluoromethanesulfonamide]", "values": [
      {"measurement": "mortality at 1.26 µg/cm2, 1.26 µg/cm2", "setting": "[1]", "value": 21, "unit": "%"}
    ]},
    {"smiles": "CCO/N=C(\\C)c1cc(Cl)ccc1NS(=O)(=O)C(F)(F)F", "note": "[Compound 36]", "values": [
      {"measurement": "mortality at 1.26 µg/cm2, 1.26 µg/cm2", "setting": "[1]", "value": 100, "unit": "%"}
    ]},
    {"smiles": "CO/N=C(\\c1ccccc1)c1cc(Cl)ccc1NS(=O)(=O)C(F)(F)F", "note": "[Compound 233]", "values": [
      {"measurement": "C. felis Mortality (%) 24 h", "setting": "24 h, Laboratory 2 B data", "value": "15^B %"},
      {"measurement": "C. felis Mortality (%) 48 h", "setting": "48 h, Laboratory 2 B data", "value": 96, "unit": "%"}
    ]},
    {"smiles": "C/C(=N\\Oc1ccc(OC(F)(F)F)cc1)c1cc(Cl)ccc1NS(=O)(=O)C(F)(F)F", "note": "[Compound 151]", "values": [
      {"measurement": "mortality at 1.26 µg/cm2, 1.26 µg/cm2", "setting": "[1]", "value": 62, "unit": "%"}
    ]},
    {"smiles": "CC/C(=N\\OCC1CCCCC1)c1cc(Cl)ccc1N(C)S(=O)(=O)C(F)(F)F", "note": "[Compound 300]", "values": [
      {"measurement": "mortality at 1.26 µg/cm2", "setting": "[3]", "value": 0, "unit": "%"},
      {"measurement": "mortality at 1.26 µg/cm2", "setting": "[6]", "value": 9, "unit": "%"}
    ]},
    {"smiles": "CC(C)(C)/C(=N\\Oc1ccc(Cl)cc1)c1cc(Cl)ccc1NS(=O)(=O)C(F)(F)F", "note": "[Compound 182, N-{4-chloro-2-[1-(4-chlorophenoxyimino)2,2-dimethylpropyl]phenyl}trifluoromethanesulfonamide]", "values": [
      {"measurement": "mortality at 1.26 µg/cm2, 1.26 µg/cm2", "setting": "[1]", "value": 28, "unit": "%"}
    ]},
    {"smiles": "C/C(=N\\Oc1ccc(F)cc1)c1cc(Cl)ccc1N(C)S(=O)(=O)C(F)(F)F", "note": "[Compound 298]", "values": [
      {"measurement": "mortality at 1.26 µg/cm2", "setting": "[3]", "value": 1, "unit": "%"},
      {"measurement": "mortality at 1.26 µg/cm2", "setting": "[6]", "value": 12, "unit": "%"}
    ]},
    {"smiles": "CO/N=C(\\C)c1cc(Br)ccc1NS(=O)(=O)C(F)(F)F", "note": "[Compound 52]", "values": [
      {"measurement": "mortality at 1.26 µg/cm2, 1.26 µg/cm2", "setting": "[1]", "value": 100, "unit": "%"}
    ]},
    {"smiles": "COCCON=C(c1ccccc1)c1cc(Cl)ccc1NS(=O)(=O)C(F)(F)F", "note": "(racemic) [Compound 234, N-{4-chloro-[(2-methoxyethoxyimino)phenylmethyl]phenyl}trifluoromethanesulfonamide]", "values": [
      {"measurement": "mortality at 1.26 µg/cm2, 1.26 µg/cm2", "setting": "[4]", "value": 64, "unit": "%"},
      {"measurement": "mortality at 1.26 µg/cm2, 1.26 µg/cm2", "setting": "[5]", "value": 100, "unit": "%"}
    ]},
    {"smiles": "CCC(CC)O/N=C(\\C)c1ccc(C(F)(F)F)cc1NS(=O)(=O)C(F)(F)F", "note": "[Compound 236]", "values": [
      {"measurement": "mortality at 1.26 µg/cm2, 1.26 µg/cm2", "setting": "[4]", "value": 69, "unit": "%"},
      {"measurement": "mortality at 1.26 µg/cm2, 1.26 µg/cm2", "setting": "[5]", "value": 100, "unit": "%"}
    ]},
    {"smiles": "CCCO/N=C(\\c1ccccc1)c1cc(Cl)ccc1NS(=O)(=O)C(F)(F)F", "note": "[Compound 252]", "values": [
      {"measurement": "C. felis Mortality (%) 24 h", "setting": "24 h, Laboratory 2 B data", "value": "15^B %"},
      {"measurement": "C. felis Mortality (%) 48 h", "setting": "48 h, Laboratory 2 B data", "value": 100, "unit": "%"}
    ]},
    {"smiles": "CC/C(=N\\OCc1ccc(Cl)cc1)c1cc(Cl)ccc1N(C)S(=O)(=O)C(F)(F)F", "note": "[Compound 297]", "values": [
      {"measurement": "mortality at 1.26 µg/cm2", "setting": "[3]", "value": 1, "unit": "%"},
      {"measurement": "mortality at 1.26 µg/cm2", "setting": "[6]", "value": 28, "unit": "%"}
    ]},
    {"smiles": "C/C(=N\\OCc1ccccn1)c1cc(Cl)ccc1NS(=O)(=O)C(F)(F)F", "note": "[Compound 48]", "values": [
      {"measurement": "mortality at 1.26 µg/cm2, 1.26 µg/cm2", "setting": "[1]", "value": 94, "unit": "%"}
    ]}
  ]
}
